ChEMBL document CHEMBL5584307, “Discovery of a Potent and Orally Bioavailable Xanthine Oxidase/Urate Transporter 1 Dual Inhibitor as a Potential Treatment for Hyperuricemia and Gout” (J Med Chem, 2024)
Blank lines part the entries; values can stand above or below the molecule they belong to.

How the values were obtained:
[1] = Half life in overnight-fasted Sprague-Dawley rat at 5 mg/kg, po measured upto 24 hrs by LC-MS/MS analysis; format: ADME, organism-based; details: in vivo
[2] = Cmax in overnight-fasted Sprague-Dawley rat at 5 mg/kg, po measured upto 24 hrs by LC-MS/MS analysis; format: ADME, organism-based; details: in vivo
[3] = AUC (last) in overnight-fasted Sprague-Dawley rat at 5 mg/kg, po measured upto 24 hrs by LC-MS/MS analysis; format: ADME, organism-based; details: in vivo
[4] = AUC (last) in overnight-fasted Sprague-Dawley rat at 1 mg/kg, iv measured upto 24 hrs by LC-MS/MS analysis; format: ADME, organism-based; details: in vivo
[5] = Clearance in overnight-fasted Sprague-Dawley rat at 1 mg/kg, iv measured upto 24 hrs by LC-MS/MS analysis; format: ADME, organism-based; details: in vivo
[6] = Volume of distribution at steady state in overnight-fasted Sprague-Dawley rat at 5 mg/kg, po or 1 mg/kg, iv measured upto 24 hrs by LC-MS/MS analysis; format: ADME, organism-based; details: in vivo
[7] = Oral bioavailability in overnight-fasted Sprague-Dawley rat at 5 mg/kg measured upto 24 hrs by LC-MS/MS analysis; format: ADME, organism-based; details: in vivo
[8] = target: T1, Xanthine dehydrogenase/oxidase (Homo sapiens, UniProt P47989); assay: Inhibition of xanthine oxidase (unknown origin) by absorbance based assay
[9] = target: T2, Solute carrier family 22 member 12 (Homo sapiens, UniProt Q96S37); assay: Inhibition of URAT1 (unknown origin) by absorbance based assay
T2 sequence (Q96S37 whole entry): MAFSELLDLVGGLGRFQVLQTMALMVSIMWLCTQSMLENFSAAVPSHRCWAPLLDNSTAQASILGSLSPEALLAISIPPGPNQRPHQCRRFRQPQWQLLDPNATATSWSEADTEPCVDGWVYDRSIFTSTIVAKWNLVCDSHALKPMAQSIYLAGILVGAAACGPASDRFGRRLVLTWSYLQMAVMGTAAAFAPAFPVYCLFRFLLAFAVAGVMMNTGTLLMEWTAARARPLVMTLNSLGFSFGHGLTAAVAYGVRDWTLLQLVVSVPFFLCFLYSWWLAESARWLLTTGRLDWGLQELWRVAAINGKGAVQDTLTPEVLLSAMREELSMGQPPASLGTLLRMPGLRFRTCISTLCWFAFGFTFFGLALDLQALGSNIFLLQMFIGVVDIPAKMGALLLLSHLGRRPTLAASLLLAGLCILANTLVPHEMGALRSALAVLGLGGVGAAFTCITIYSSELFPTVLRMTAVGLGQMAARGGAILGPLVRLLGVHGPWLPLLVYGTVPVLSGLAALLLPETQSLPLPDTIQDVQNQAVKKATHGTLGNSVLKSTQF

[10] = target: T1, Xanthine dehydrogenase/oxidase; assay: Inhibition of xanthine oxidase (unknown origin) at 10 uM by absorbance based assay
Sapajus apella [11] = assay: Urate lowering effect in Tufted capuchin monkey assessed as fraction excretion of uric acid at 30 mg/kg/day, po qd for 3 days consecutively relative to control; format: functional; details: time 3 day
Sapajus apella [12] = details: dose 30.0 mg/kg/day, route po, time 3.0 day
[13] = target: T2, Solute carrier family 22 member 12; assay: Inhibition of URAT1 (unknown origin) at 10 uM by absorbance based assay
Sapajus apella [14] = assay: Urate lowering effect in Tufted capuchin monkey assessed as serum xanthine level at 2 mg/kg/day, po qd for 3 days consecutively; format: functional; details: time 3 day
Sapajus apella [15] = assay: Urate lowering effect in Tufted capuchin monkey assessed as urine xanthine level at 2 mg/kg/day, po qd for 3 days consecutively; format: functional; details: time 3 day
Sapajus apella [16] = details: dose 2.0 mg/kg/day, route po, time 3.0 day

T1 sequence (P47989 whole entry): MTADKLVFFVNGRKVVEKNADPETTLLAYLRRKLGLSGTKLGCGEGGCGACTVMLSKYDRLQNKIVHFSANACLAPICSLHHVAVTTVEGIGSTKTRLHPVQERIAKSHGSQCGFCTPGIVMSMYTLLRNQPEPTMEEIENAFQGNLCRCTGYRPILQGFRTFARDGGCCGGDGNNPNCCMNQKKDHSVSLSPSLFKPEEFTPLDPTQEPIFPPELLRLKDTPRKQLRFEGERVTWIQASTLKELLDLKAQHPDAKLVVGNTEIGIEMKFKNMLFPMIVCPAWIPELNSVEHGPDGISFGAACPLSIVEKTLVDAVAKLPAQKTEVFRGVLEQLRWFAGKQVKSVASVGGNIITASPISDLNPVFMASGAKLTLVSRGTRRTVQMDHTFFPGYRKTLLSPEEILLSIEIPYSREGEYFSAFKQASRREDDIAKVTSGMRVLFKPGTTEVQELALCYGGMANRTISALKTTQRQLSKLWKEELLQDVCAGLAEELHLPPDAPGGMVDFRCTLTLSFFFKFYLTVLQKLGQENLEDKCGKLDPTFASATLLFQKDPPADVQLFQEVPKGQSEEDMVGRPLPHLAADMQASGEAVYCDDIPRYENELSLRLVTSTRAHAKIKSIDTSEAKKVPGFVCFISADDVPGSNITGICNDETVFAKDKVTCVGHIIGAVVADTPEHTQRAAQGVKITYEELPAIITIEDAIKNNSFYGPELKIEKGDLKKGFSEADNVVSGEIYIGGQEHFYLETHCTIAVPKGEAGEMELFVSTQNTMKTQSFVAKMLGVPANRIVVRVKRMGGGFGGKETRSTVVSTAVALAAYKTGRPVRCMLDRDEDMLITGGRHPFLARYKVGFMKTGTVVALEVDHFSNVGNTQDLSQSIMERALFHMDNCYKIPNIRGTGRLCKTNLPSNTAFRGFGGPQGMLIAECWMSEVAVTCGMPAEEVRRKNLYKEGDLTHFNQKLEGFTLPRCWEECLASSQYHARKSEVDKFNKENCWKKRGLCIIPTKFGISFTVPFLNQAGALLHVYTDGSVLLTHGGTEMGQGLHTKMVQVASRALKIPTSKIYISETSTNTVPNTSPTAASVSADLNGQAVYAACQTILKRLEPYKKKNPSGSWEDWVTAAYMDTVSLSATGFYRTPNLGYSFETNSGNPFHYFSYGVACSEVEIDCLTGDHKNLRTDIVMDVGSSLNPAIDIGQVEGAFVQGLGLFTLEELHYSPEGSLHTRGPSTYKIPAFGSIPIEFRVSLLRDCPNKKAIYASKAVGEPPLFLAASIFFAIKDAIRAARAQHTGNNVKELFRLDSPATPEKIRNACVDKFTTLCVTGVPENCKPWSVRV

SMILES: N#Cc1cc(-c2ccc(C(=O)O)c(O)c2)c2ccsc2c1
half-life [1]: 1.86 h
Cmax [2]: 2050 ng/mL
AUC(0-t) at 24 h [3]: 2430 ng·h/mL
AUC(0-t) at 24 h [4]: 902 ng·h/mL
clearance [5]: 18.6 mL/min/kg
Vdss [6]: 0.4 L/kg
bioavailability [7]: 55.8%

SMILES: N#Cc1cc(-c2ccc(C(=O)O)c(O)c2)c2occc2c1
half-life [1]: 3.45 h
Cmax [2]: 6830 ng/mL
AUC(0-t) at 24 h [3]: 44400 ng·h/mL
AUC(0-t) at 24 h [4]: 6860 ng·h/mL
clearance [5]: 2.4 mL/min/kg
Vdss [6]: 0.399 L/kg
bioavailability [7]: 131%

SMILES: N#Cc1cc2c(c(-c3ccc(C(=O)O)c(O)c3)c1)CCC2
IC50 [8]: 560 nM
IC50 [9]: 107 nM

SMILES: COc1cc(-c2cc(C#N)cc3ccoc23)ccc1C(=O)O
IC50 [8]: > 10000 nM
IC50 [9]: 3750 nM

SMILES: N#Cc1cc(-c2ccc(C(=O)O)cc2)c2occc2c1
IC50 [8]: 591 nM
IC50 [9]: 598 nM

SMILES: CCc1oc2ccccc2c1C(=O)c1cc(Br)c(O)c(Br)c1 [BENZBROMARONE]
inhibition (INH) [10]: Not Active
Activity (Sapajus apella [11]): 42.3%
AUC (Sapajus apella [12]): 894000 ng·h/mL

SMILES: Cc1nc(-c2ccc(OCC(C)C)c(C#N)c2)sc1C(=O)O [FEBUXOSTAT]
inhibition (INH) [13]: Not Active
Activity (Sapajus apella [14]): 6.61 µg·h/mL
Activity (Sapajus apella [15]): 32.1 µg·h/mL
AUC (Sapajus apella [16]): 478000 ng·h/mL

SMILES: CC(C)COc1ccc(-c2cccc(O)c2C(=O)O)cc1C#N
IC50 [8]: > 10000 nM
IC50 [9]: > 10000 nM

SMILES: N#Cc1cc(-c2ccc(C(=O)O)c(O)c2)c2oc(Cl)cc2c1
IC50 [9]: 37 nM
half-life [1]: 3.05 h
Cmax [2]: 3700 ng/mL
AUC(0-t) at 24 h [3]: 28100 ng·h/mL
AUC(0-t) at 24 h [4]: 5480 ng·h/mL
clearance [5]: 2.77 mL/min/kg
Vdss [6]: 0.4 L/kg
bioavailability [7]: 93.9%

The remaining molecules from weak to strong by IC50 [8], led by results:

IC50 [8]: 388 nM
IC50 [9]: 3190 nM
SMILES: O=C(O)c1ccc(-c2cc(C(F)(F)F)cc3ccoc23)cc1O

IC50 [8]: 347 nM
IC50 [9]: 104 nM
SMILES: N#Cc1cc(-c2ccc(C(=O)O)c(O)c2)c2oc(C(F)(F)F)cc2c1

IC50 [8]: 133 nM
IC50 [9]: 444 nM
SMILES: N#Cc1cc(-c2ccc(C(=O)O)c(O)c2)c2sccc2c1

IC50 [8]: 101 nM
IC50 [9]: 3640 nM
SMILES: N#Cc1cc(-c2ccc(C(=O)O)c(O)c2)c2ncsc2c1

IC50 [8]: 61 nM
IC50 [9]: 623 nM
SMILES: Cc1cc2cc(C#N)cc(-c3ccc(C(=O)O)c(O)c3)c2o1

IC50 [8]: 46 nM
IC50 [9]: 352 nM
SMILES: N#Cc1cc2c(c(-c3ccc(C(=O)O)c(O)c3)c1)OCC2

IC50 [8]: 39 nM
half-life [1]: 2.66 h
Cmax [2]: 6550 ng/mL
AUC(0-t) at 24 h [3]: 43200 ng·h/mL
AUC(0-t) at 24 h [4]: 8530 ng·h/mL
clearance [5]: 1.93 mL/min/kg
Vdss [6]: 0.155 L/kg
bioavailability [7]: 99.5%
SMILES: N#Cc1cc(-c2ccc(C(=O)O)c(O)c2)c2ccoc2c1

IC50 [8]: 37 nM
IC50 [9]: 2200 nM
SMILES: N#Cc1cccc(-c2ccc(C(=O)O)c(O)c2)c1

IC50 [8]: 27 nM
IC50 [9]: > 10000 nM
SMILES: N#Cc1cc(-c2ccc(C(=O)O)c(O)c2)c2cc[nH]c2c1

IC50 [8]: 18 nM
IC50 [9]: 8300 nM
SMILES: CC(C)COc1ccc(-c2ccc(C(=O)O)c(O)c2)cc1C#N

IC50 [8]: 8 nM
IC50 [9]: 1650 nM
SMILES: N#Cc1cc(-c2ccc(C(=O)O)c(O)c2)c2occ(C(F)(F)F)c2c1
